Consider 25 molecules from patent US20230181536A1, “ANTICANCER COMBINATION THERAPY WITH N-(1-ACRYLOYL-AZETIDIN-3-YL)-2-((1H-INDAZOL-3-YL)AMINO)METHYL)-1H-IMIDAZOLE-5-CARBOXAMIDE INHIBITOR OF KRAS-G12C” (TAIHO PHARMACEUTICAL CO., LTD., priority 2020, published 2023).

Usually IC50 stands for the midpoint of a concentration-inhibition curve. Low values mean greater potency, high ones weaker potency.

In this test the target is T1, KRAS G12C (Homo sapiens, UniProt P01116, G12C).
T1 construct: KRAS G12C (amino acid region: 1-169)
T1 sequence (P01116 1-169 isoform P01116-2 G12C): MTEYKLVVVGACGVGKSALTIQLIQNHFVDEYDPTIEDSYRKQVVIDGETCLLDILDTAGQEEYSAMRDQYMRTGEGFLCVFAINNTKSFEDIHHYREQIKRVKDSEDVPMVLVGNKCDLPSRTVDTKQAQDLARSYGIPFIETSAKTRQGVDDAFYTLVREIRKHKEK
Briefly: Inhibitory activity on the KRAS G12C nucleotide (GDP-GTP) exchange reaction. Format: biochemical. The following applies: Bodipy FL GDP-bound KRAS G12C 25 nM; preincubation at 25° C. for 4 hours; SOS1 100 nM, GppNHp 1 μM, reaction for 30 minutes. In a few lines: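 Bodipy FL-GDP-loaded KRAS G12C (aa 1-169, 25 nM) preincubated with compound 4 h at 25 °C in pH 7.5 Tris buffer, 5% DMSO; exchange started with SOS1 (aa 564-1049, 100 nM) and 1 μM GppNHp for 30 min. Fluorescence change (ex 485/em 520 nm) normalized to DMSO and no-GppNHp controls; IC50 calculated.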
`C=CC(=O)N1CC[C@@H](NC(=O)c2c(F)nc(CNc3n[nH]c4cc(Cl)c(C(C)(C)C)cc34)n2C)C1` [Example 72, (R)-N-(1-acryloylpyrrolidin-3-yl)-2-(((5-(tert-butyl)-6-chloro-1H-indazol-3-yl)amino)methyl)-4-fluoro-1-methyl-1H-imidazole-5-carboxamide] returned an IC50 of 71 nM.

As for `C=CC(=O)N1CC(NC(=O)c2cnc(CNc3n[nH]c4cc(Cl)c(C)cc34)n2C)C1` [Example 37, N-(1-acryloylazetidin-3-yl)-2-(((6-chloro-5-methyl-1H-indazol-3-yl)amino)methyl)-1-methyl-1H-imidazole-5-carboxamide], the IC50 stood at 5480 nM. The figure for `C=CC(=O)N1CC(NC(=O)c2c(Cl)nc(CNc3n[nH]c4cc(Cl)c(C(C)(C)C)cc34)n2CC(F)F)C1` [Example 100, N-(1-acryloylazetidin-3-yl)-2-(((5-(tert-butyl)-6-chloro-1H-indazol-3-yl)amino)methyl)-4-chloro-1-(2,2-difluoroethyl)-1H-imidazole-5-carboxamide] is 14 nM.

For `C=CC(=O)N1CC[C@@H](N(C)C(=O)c2cnc(CNc3n[nH]c4cc(Cl)c(C(C)(C)C)cc34)n2C)C1` [Example 77, (R)-N-(1-acryloylpyrrolidin-3-yl)-2-(((5-(tert-butyl)-6-chloro-1H-indazol-3-yl)amino)methyl)-N,1-dimethyl-1H-imidazole-5-carboxamide], it took 142 nM to reach half-maximal inhibition (IC50).

As for `C=CC(=O)N1CC(NC(=O)c2c(Cl)nc(CNc3n[nH]c4cc(Cl)c(C(C)(C)C)cc34)n2CCCC)C1` [Example 87, N-(1-acryloylazetidin-3-yl)-1-butyl-2-(((5-(tert-butyl)-6-chloro-1H-indazol-3-yl)amino)methyl)-4-chloro-1H-imidazole-5-carboxamide], half-maximal inhibition (IC50) was put at 14 nM.

The molecule `C=CC(=O)N1CC(NC(=O)c2c(Cl)nc(CNc3n[nH]c4cc(Cl)c(C(C)(C)C)cc34)n2C2CN(C(=O)OC(C)(C)C)C2)C1` [Example 106, Tert-butyl 3-(5-((1-acryloylazetidin-3-yl)carbamoyl)-2-(((5-(tert-butyl)-6-chloro-1H-indazol-3-yl)amino)methyl)-4-chloro-1H-imidazol-1-yl)azetidine-1-carboxylate] gave an IC50 of 8 nM. Next, `C=CC(=O)N1C[C@@H](NC(=O)c2c(C)nc(CNc3n[nH]c4cc(Cl)c(C(C)(C)C)cc34)n2C)[C@@H]1C` (relative stereo) [Example 59, N-(trans-1-acryloyl-2-methylazetidin-3-yl)-2-(((5-(tert-butyl)-6-chloro-1H-indazol-3-yl)amino)methyl)-1,4-dimethyl-1H-imidazole-5-carboxamide]: 85 nM.

With `Cc1nc(CNc2n[nH]c3cc(Cl)c(C(C)(C)C)cc23)n(C)c1C(=O)NC1CN(C(=O)/C=C/CN(C)C)C1` [Example 80, (E)-2-(((5-(tert-butyl)-6-chloro-1H-indazol-3-yl)amino)methyl)-N-(1-(4-(dimethylamino)but-2-enoyl)azetidin-3-yl)-1,4-dimethyl-1H-imidazole-5-carboxamide], 63 nM corresponded to half-maximal inhibition (IC50). Next, `C=CC(=O)N1CC(NC(=O)c2c(I)nc(CNc3n[nH]c4cc(Cl)c(C(C)(C)C)cc34)n2C)C1` [Example 26, N-(1-acryloylazetidin-3-yl)-2-(((5-(tert-butyl)-6-chloro-1H-indazol-3-yl)amino)methyl)-4-iodo-1-methyl-1H-imidazole-5-carboxamide]: 69 nM.

For the molecule `C=CC(=O)N1CC(NC(=O)c2c(Cl)nc(CNc3n[nH]c4cc(Cl)c(C(C)(C)C)cc34)n2[C@H]2CCOC2)C1` [Example 97, (S)-N-(1-acryloylazetidin-3-yl)-2-(((5-(tert-butyl)-6-chloro-1H-indazol-3-yl)amino)methyl)-4-chloro-1-(tetrahydrofuran-3-yl)-1H-imidazole-5-carboxamide], 4 nM corresponded to half-maximal inhibition (IC50). `C=CC(=O)N1CC(NC(=O)c2c(Cl)c(CNc3n[nH]c4cc(Cl)c(C(C)(C)C)cc34)nn2C)C1` [Example 6, N-(1-acryloylazetidin-3-yl)-3-(((5-(tert-butyl)-6-chloro-1H-indazol-3-yl)amino)methyl)-4-chloro-1-methyl-1H-pyrazole-5-carboxamide] displayed an IC50 of 791 nM. The figure for `C=CC(=O)N1CC(NC(=O)c2c(C)nc(CNc3n[nH]c4cc(Cl)c(C(C)(C)C)cc34)n2C2CCCC2)C1` [Example 17, N-(1-acryloylazetidin-3-yl)-2-(((5-(tert-butyl)-6-chloro-1H-indazol-3-yl)amino)methyl)-1-cyclopentyl-4-methyl-JH-imidazole-5-carboxamide] is 17 nM; for `C=CC(=O)N1CC(NC(=O)c2sc(CNc3n[nH]c4cc(Cl)c(C(C)(C)C)cc34)nc2C)C1` [Example 2, N-(1-acryloylazetidin-3-yl)-2-(((5-(tert-butyl)-6-chloro-1H-indazol-3-yl)amino)methyl)-4-methylthiazole-5-carboxamide] it is 365 nM; for `C=CC(=O)N1CC(NC(=O)c2cc(CNc3n[nH]c4cc(Cl)c(C(C)(C)C)cc34)nn2C)C1` [Example 9, N-(1-acryloylazetidin-3-yl)-3-(((5-(tert-butyl)-6-chloro-1H-indazol-3-yl)amino)methyl)-1-methyl-1H-pyrazole-5-carboxamide] it is 3140 nM. Regarding `C=CC(=O)N1CC(NC(=O)c2c(Cl)nc(CNc3n[nH]c4cc(Cl)c(C(C)(C)C)cc34)n2C2CC=CC2)C1` [Example 98, N-(1-acryloylazetidin-3-yl)-2-(((5-(tert-butyl)-6-chloro-1H-indazol-3-yl)amino)methyl)-4-chloro-1-(cyclopent-3-en-1-yl)-1H-imidazole-5-carboxamide], the IC50 is 7 nM.

For the molecule `C=CC(=O)N1CC(NC(=O)c2c(Cl)nc(CNc3n[nH]c4cc(Cl)c(C(C)(C)C)cc34)n2C2CN(C(C)=O)C2)C1` [Example 108, 1-(1-acetylazetidin-3-yl)-N-(1-acryloylazetidin-3-yl)-2-(((5-(tert-butyl)-6-chloro-1H-indazol-3-yl)amino)methyl)-4-chloro-1H-imidazole-5-carboxamide], 9 nM corresponded to half-maximal inhibition (IC50).

For the molecule `C=CC(=O)N1CC(NC(=O)c2c(C)nc(CNc3n[nH]c4cc(Cl)c(C(C)(C)C)cc34)n2C(C)(C)C)C1` [Example 24, N-(1-acryloylazetidin-3-yl)-1-(tert-butyl)-2-(((5-(tert-butyl)-6-chloro-1H-indazol-3-yl)amino)methyl)-4-methyl-1H-imidazole-5-carboxamide], it took 35 nM to reach half-maximal inhibition (IC50). The figure for `C=CC(=O)N1CC(NC(=O)c2c(C)nc(CNc3n[nH]c4cc(Cl)c(C(C)(C)C)cc34)n2Cc2ccccc2)C1` [Example 15, N-(1-acryloylazetidin-3-yl)-1-benzyl-2-(((5-(tert-butyl)-6-chloro-1H-indazol-3-yl)amino)methyl)-4-methyl-JH-imidazole-5-carboxamide] is 84 nM; for `C=CC(=O)N1CC(NC(=O)c2c(Cl)nc(CNc3n[nH]c4cc(Cl)c(C(C)(C)C)cc34)n2C2CCCC2)C1` [Example 105, N-(1-acryloylazetidin-3-yl)-2-(((5-(tert-butyl)-6-chloro-1H-indazol-3-yl)amino)methyl)-4-chloro-1-cyclopentyl-1H-imidazole-5-carboxamide] it is 8 nM. Next, `C=CC(=O)N1C[C@@H](CC#N)[C@@H](NC(=O)c2c(C)nc(CNc3n[nH]c4cc(Cl)c(C(C)(C)C)cc34)n2C)C1` [Example 65, N-((3R,4R)-1-acryloyl-4-(cyanomethyl)pyrrolidin-3-yl)-2-(((5-(tert-butyl)-6-chloro-1H-indazol-3-yl)amino)methyl)-1,4-dimethyl-1H-imidazole-5-carboxamide]: 19 nM; `C=CC(=O)N1CC(NC(=O)c2cnc(CNc3n[nH]c4cc(Cl)c(C=C)cc34)n2C)C1` [Example 38, N-(1-acryloylazetidin-3-yl)-2-(((6-chloro-5-vinyl 1H-indazol-3-yl)amino)methyl)-1-methyl-1H-imidazole-5-carboxamide]: 2170 nM.

For `C=CC(=O)N1C[C@@H](F)[C@@H](NC(=O)c2c(C)nc(CNc3n[nH]c4cc(Cl)c(C(C)(C)C)cc34)n2C)C1` [Example 57, N-((3S,4R)-1-acryloyl-4-fluoropyrrolidin-3-yl)-2-(((5-(tert-butyl)-6-chloro-1H-indazol-3-yl)amino)methyl)-1,4-dimethyl-1H-imidazole-5-carboxamide], the IC50 worked out at 324 nM. Next, `C=CC(=O)N1CC(NC(=O)c2c(Cl)nc(CNc3n[nH]c4cc(Cl)c(C(C)(C)C)cc34)n2[C@@H]2CCN(Cc3ccccc3)C2)C1` [Example 122, (R)-N-(1-acryloylazetidin-3-yl)-1-(1-benzylpyrrolidin-3-yl)-2-(((5-(tert-butyl)-6-chloro-1H-indazol-3-yl)amino)methyl)-4-chloro-1H-imidazole-5-carboxamide]: 6 nM; `C=CC(=O)N1CC(NC(=O)c2c(C(F)F)nc(CNc3n[nH]c4cc(Cl)c(C(C)(C)C)cc34)n2C2CCN(C)C2)C1` (stereo not shown) [Example 91, N-(1-acryloylazetidin-3-yl)-2-(((5-(tert-butyl)-6-chloro-1H-indazol-3-yl)amino)methyl)-4-(difluoromethyl)-1-(1-methylpyrrolidin-3-yl)-1H-imidazole-5-carboxamide]: 7 nM. On to `C=CC(=O)N1CC(NC(=O)c2c(Cl)nc(CNc3n[nH]c4cc(Cl)c(C(C)(C)C)cc34)n2CC(C)C)C1` [Example 89, N-(1-acryloylazetidin-3-yl)-2-(((5-(tert-butyl)-6-chloro-1H-indazol-3-yl)amino)methyl)-4-chloro-1-isobutyl-1H-imidazole-5-carboxamide], for which the IC50 worked out at 7 nM.
